# Patent publication US20230382904A1, “SUBSTITUTED 4-([1,2,4]TRIAZOLO[1,5-a]PYRIDIN-6-YL)THIOPHENE-2-CARBOXAMIDE DERIVATIVES AND USE THEREOF” (The Johns Hopkins University, priority 2020, published 2023)
# Experiments:
# DLK = DLK (Homo sapiens (Human), UniProt Q12852); test: DLK biochemical assay (TR-FRET, MKK7 phosphorylation)
# Method in brief: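 TR-FRET ratio (665/Eu) reports MKK7 T275/S277 phosphorylation, lowered by DLK inhibition. Reaction: 60 μM ATP, 15 nM MKK7, 10 nM DLK catalytic domain, 90 min room temperature; detection incubation 16 h, 37° C. (1536-well) or 4° C. (384-well). Final concentrations.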
# LZK = LZK (Homo sapiens (Human), UniProt O43283); test: LZK biochemical assay (TR-FRET, MKK7 phosphorylation)
# Chain of LZK (O43283 168-409): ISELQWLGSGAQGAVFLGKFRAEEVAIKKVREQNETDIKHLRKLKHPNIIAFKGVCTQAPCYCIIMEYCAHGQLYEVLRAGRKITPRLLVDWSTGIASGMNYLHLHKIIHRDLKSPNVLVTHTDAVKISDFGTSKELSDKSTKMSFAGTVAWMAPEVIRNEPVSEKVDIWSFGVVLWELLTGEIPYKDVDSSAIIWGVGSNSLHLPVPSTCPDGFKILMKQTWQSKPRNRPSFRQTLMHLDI
# Method in brief: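 Readout is the HTRF ratio (XL665/Eu) from an EDTA-containing detection mix of 0.4 nM Eu-anti-phospho-MKK7 (T275/S277) and 20 nM XL665-anti-His, incubated 16 h at 32° C. This followed a 90 min RT reaction of 10 nM LZK catalytic domain, 15 nM MKK7 and 15 μM ATP at pH 7.5.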
# Chain of DLK (Q12852 1-520): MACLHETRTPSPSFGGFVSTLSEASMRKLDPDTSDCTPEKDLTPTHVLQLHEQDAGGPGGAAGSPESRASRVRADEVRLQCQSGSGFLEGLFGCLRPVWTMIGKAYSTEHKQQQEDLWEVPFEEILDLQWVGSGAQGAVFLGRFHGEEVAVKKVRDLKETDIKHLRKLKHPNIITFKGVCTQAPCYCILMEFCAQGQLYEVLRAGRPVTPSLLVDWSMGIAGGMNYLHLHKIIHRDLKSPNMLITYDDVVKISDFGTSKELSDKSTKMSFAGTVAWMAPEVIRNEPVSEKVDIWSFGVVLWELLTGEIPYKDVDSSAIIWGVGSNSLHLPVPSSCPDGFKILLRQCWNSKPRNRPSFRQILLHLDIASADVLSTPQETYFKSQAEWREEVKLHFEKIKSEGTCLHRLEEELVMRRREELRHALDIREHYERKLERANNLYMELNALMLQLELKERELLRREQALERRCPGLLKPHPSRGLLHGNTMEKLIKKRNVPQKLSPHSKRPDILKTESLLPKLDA
compound,measurement,setting,value
Cc1ccc([C@H](C)NC(=O)c2cc(-c3cc(C(=O)N[C@H]4CCOC4)c4nc(N)nn4c3)cs2)cc1 [Compound 106],IC50,DLK,11 nM
same,IC50,LZK,160 nM
COC[C@H](NC(=O)c1cc(-c2cc(C(=O)N[C@H]3CCOC3)c3nc(N)nn3c2)cs1)c1ccccc1 [Compound 107],IC50,DLK,5.5 nM
same,IC50,LZK,46 nM
CC[C@H](NC(=O)c1cc(-c2cc(C(=O)NC(C)C)c3nc(N)nn3c2)cs1)c1ccc(F)cc1 [Compound 108],IC50,DLK,4 nM
same,IC50,LZK,25 nM
C[C@H](NC(=O)c1cc(-c2cc(C(=O)N[C@H](CO)C(F)(F)F)c3nc(N)nn3c2)cs1)c1ccc(F)cc1 [Compound 109],IC50,DLK,7.5 nM
same,IC50,LZK,120 nM
C[C@@H](CO)NC(=O)c1cc(-c2csc(C(=O)N(C)[C@@H](C)c3ccc(F)cc3)c2)cn2nc(N)nc12 [Compound 110],IC50,DLK,82 nM
same,IC50,LZK,470 nM
Nc1nc2c(C(=O)N[C@H](CO)C(F)(F)F)cc(-c3csc(C(=O)NCc4ccc(F)cc4)c3)cn2n1 [Compound 111],IC50,DLK,44 nM
same,IC50,LZK,290 nM
Nc1nc2c(C(=O)NC3CNC3)cc(-c3csc(C(=O)NCc4ccc(F)cc4)c3)cn2n1 [Compound 113],IC50,DLK,220 nM
same,IC50,LZK,660 nM
C[C@H](NC(=O)c1cc(-c2cc(C(=O)NC3CNC3)c3nc(N)nn3c2)cs1)c1ccc(F)cc1 [Compound 114],IC50,DLK,47 nM
same,IC50,LZK,710 nM
CC[C@H](NC(=O)c1cc(-c2cc(C(=O)N[C@H]3CCOC3)c3nc(N)nn3c2)cs1)c1ccc(F)cc1 [Compound 115],IC50,DLK,1.3 nM
same,IC50,LZK,41 nM
CC[C@H](C)NC(=O)c1cc(-c2csc(C(=O)N[C@@H](COC)c3ccccc3)c2)cn2nc(N)nc12 [Compound 116],IC50,DLK,2.2 nM
same,IC50,LZK,14 nM
CC(C)NC(=O)c1cc(-c2csc(C(=O)NC(COC(F)(F)F)c3ccccc3)c2)cn2nc(N)nc12 (stereo not drawn) [Compound 117],IC50,DLK,21 nM
same,IC50,LZK,240 nM
CC(C)NC(=O)c1cc(-c2csc(C(=O)N[C@@H](C)c3ccc(OC(F)(F)F)cc3)c2)cn2nc(N)nc12 [Compound 118],IC50,DLK,210 nM
same,IC50,LZK,5200 nM
CC(C)NC(=O)c1cc(-c2csc(C(=O)NC3CCCc4cc(F)ccc43)c2)cn2nc(N)nc12 (stereo not drawn) [Compound 119],IC50,DLK,24 nM
same,IC50,LZK,505 nM
CC(C)NC(=O)c1cc(-c2csc(C(=O)N[C@H]3CCOc4ccccc43)c2)cn2nc(N)nc12 [Compound 120],IC50,DLK,6.9 nM
same,IC50,LZK,110 nM
CC(C)NC(=O)c1cc(-c2csc(C(=O)NC3CC(C)(C)Oc4ccccc43)c2)cn2nc(N)nc12 (stereo not drawn) [Compound 121],IC50,DLK,17 nM
same,IC50,LZK,520 nM
CC(C)NC(=O)c1cc(-c2csc(C(=O)N[C@H]3CCCc4ccccc43)c2)cn2nc(N)nc12 [Compound 122],IC50,DLK,6 nM
same,IC50,LZK,360 nM
CC(C)NC(=O)c1cc(-c2csc(C(=O)NC3(c4ccc(F)cc4)CCCC3)c2)cn2nc(N)nc12 [Compound 123],IC50,DLK,2.9 nM
same,IC50,LZK,83 nM
COc1ccc(C(C)(C)NC(=O)c2cc(-c3cc(C(=O)NC(C)C)c4nc(N)nn4c3)cs2)cc1 [Compound 124],IC50,DLK,17 nM
same,IC50,LZK,330 nM
COc1cccc(C(C)(C)NC(=O)c2cc(-c3cc(C(=O)NC(C)C)c4nc(N)nn4c3)cs2)c1 [Compound 125],IC50,DLK,18 nM
same,IC50,LZK,220 nM
CC[C@@H](NC(=O)c1cc(-c2csc(C(=O)NCc3ccc(F)cc3)c2)cn2nc(N)nc12)C(F)(F)F [Compound 126],IC50,DLK,980 nM
same,IC50,LZK,3400 nM
CC[C@@H](NC(=O)c1cc(-c2csc(C(=O)N[C@@H](C)c3ccc(F)cc3)c2)cn2nc(N)nc12)C(F)(F)F [Compound 127],IC50,DLK,930 nM
same,IC50,LZK,8300 nM
CC(C)NC(=O)c1cc(-c2csc(C(=O)NCC3CC3)c2)cn2nc(N)nc12 [Compound 128],IC50,DLK,110 nM
same,IC50,LZK,620 nM
CC(C)NC(=O)c1cc(-c2csc(C(=O)NC3COC3)c2)cn2nc(N)nc12 [Compound 129],IC50,DLK,290 nM
same,IC50,LZK,800 nM
COC[C@H](NC(=O)c1cc(-c2cc(C(=O)NC(C)C)c3nc(N)nn3c2)cs1)c1ccc(F)cc1 [Compound 130],IC50,DLK,14 nM
same,IC50,LZK,120 nM
CC(C)NC(=O)c1cc(-c2csc(C(=O)NC3CC(C)(C)Oc4ccccc43)c2)cn2nc(N)nc12 (stereo not drawn) [Compound 131],IC50,DLK,63 nM
same,IC50,LZK,1500 nM
CC(C)NC(=O)c1cc(-c2csc(C(=O)NC3CC(C)(C)Oc4ccccc43)c2)cn2nc(N)nc12 (stereo not drawn) [Compound 132],IC50,DLK,28 nM
same,IC50,LZK,730 nM
CC[C@H](C)NC(=O)c1cc(-c2csc(C(=O)N[C@H](CC)c3ccc(F)cc3)c2)cn2nc(N)nc12 [Compound 133],IC50,DLK,10 nM
same,IC50,LZK,240 nM
CC[C@@H](NC(=O)c1cc(-c2cc(C(=O)NC(C)C)c3nc(N)nn3c2)cs1)c1ccc(F)cc1 [Compound 134],IC50,DLK,36 nM
same,IC50,LZK,680 nM
CC[C@@H](NC(=O)c1cc(-c2cc(C(=O)N[C@H]3CCOC3)c3nc(N)nn3c2)cs1)c1ccc(F)cc1 [Compound 135],IC50,DLK,7.4 nM
same,IC50,LZK,250 nM
CC[C@@H](C)NC(=O)c1cc(-c2csc(C(=O)N[C@H](CC)c3ccc(F)cc3)c2)cn2nc(N)nc12 [Compound 136],IC50,DLK,63 nM
same,IC50,LZK,5600 nM
CC[C@H](NC(=O)c1cc(-c2cc(C(=O)NC3CCC3)c3nc(N)nn3c2)cs1)c1ccc(F)cc1 [Compound 137],IC50,DLK,9.7 nM
same,IC50,LZK,300 nM
CC[C@H](C)NC(=O)c1cc(-c2csc(C(=O)N[C@@H](COC)c3ccc(F)cc3)c2)cn2nc(N)nc12 [Compound 138],IC50,DLK,4.2 nM
same,IC50,LZK,31 nM
COC[C@H](NC(=O)c1cc(-c2cc(C(=O)N[C@H]3CCOC3)c3nc(N)nn3c2)cs1)c1ccc(F)cc1 [Compound 139],IC50,DLK,5.5 nM
same,IC50,LZK,120 nM
CC[C@H](NC(=O)c1cc(-c2cc(C(=O)NC3(CO)CC3)c3nc(N)nn3c2)cs1)c1ccc(F)cc1 [Compound 140],IC50,DLK,72 nM
same,IC50,LZK,790 nM
CC[C@H](NC(=O)c1cc(-c2cc(C(=O)NC(C)CF)c3nc(N)nn3c2)cs1)c1ccc(F)cc1 (stereo partly drawn) [Compound 141],IC50,DLK,10 nM
same,IC50,LZK,63 nM
CC[C@H](NC(=O)c1cc(-c2cc(C(=O)NC(C)(C)C)c3nc(N)nn3c2)cs1)c1ccc(F)cc1 [Compound 142],IC50,DLK,120 nM
same,IC50,LZK,400 nM
CC[C@H](C)NC(=O)c1cc(-c2csc(C(=O)NC3(c4ccc(F)cc4)CCCC3)c2)cn2nc(N)nc12 [Compound 143],IC50,DLK,8.9 nM
same,IC50,LZK,110 nM
CC[C@H](NC(=O)c1cc(-c2cc(C(=O)NC(C)CF)c3nc(N)nn3c2)cs1)c1ccc(F)cc1 (stereo partly drawn) [Compound 144-1],IC50,DLK,4.6 nM
same,IC50,LZK,42 nM
CC[C@H](C)NC(=O)c1cc(-c2csc(C(=O)N[C@H]3CCOc4ccccc43)c2)cn2nc(N)nc12 [Compound 144-3],IC50,DLK,7.2 nM
same,IC50,LZK,43 nM
CC[C@H](NC(=O)c1cc(-c2csc(C(=O)NCc3ccc(F)cc3)c2)cn2nc(N)nc12)C(F)(F)F [Compound 144-4],IC50,DLK,800 nM
same,IC50,LZK,2500 nM
CC[C@H](NC(=O)c1cc(-c2csc(C(=O)N[C@@H](C)c3ccc(F)cc3)c2)cn2nc(N)nc12)C(F)(F)F [Compound 144-5],IC50,DLK,630 nM
same,IC50,LZK,2600 nM
CC[C@@H](C)NC(=O)c1cc(-c2csc(C(=O)N[C@@H](CC)c3ccc(F)cc3)c2)cn2nc(N)nc12 [Compound 144],IC50,DLK,38 nM
same,IC50,LZK,770 nM
